Assay results as given in ChEMBL document CHEMBL5634204, “Goondansamycins A-H: Benzenoid Ansamycins from an Australian Volcanic Crater Soil-Derived Actinomadura sp. S4S-00069B08” (J Nat Prod, 2024).

Key:
SW-620 = assay: Cytotoxicity against human SW620 cells assessed as inhibition of cell growth incubated for 48 hrs by MTT assay; assay type: functional, cell-based; details: SW-620, 48 h
Candida albicans = assay: Antifungal activity against Candida albicans ATCC 10231 assessed as inhibition of fungal growth incubated for 48 hrs by spectrophotometry; assay type: functional, organism-based; details: ATCC 10231, 48 h
NCI-H460 = assay: Cytotoxicity against human NCI-H460 cells assessed as inhibition of cell growth incubated for 48 hrs by MTT assay; assay type: functional, cell-based; details: NCI-H460, 48 h
Staphylococcus aureus = assay: Antibacterial activity against Staphylococcus aureus ATCC 25923 assessed as inhibition of bacterial growth incubated for 24 hrs by spectrophotometry; assay type: functional, organism-based; details: ATCC 25923, 24 h
Escherichia coli = assay: Antibacterial activity against Escherichia coli ATCC 11775 assessed as inhibition of bacterial growth incubated for 24 hrs by spectrophotometry; assay type: functional, organism-based; details: ATCC 11775, 24 h

Measured: IC50

C/C1=C\[C@@H](C)[C@H](O)c2cc(O)cc(c2O)NC(=O)[C@@H](C)C(=O)[C@@H](C)C1
> 30 µM: all assays above

C/C1=C\[C@@H](C)[C@H](O)c2cc(O)cc3c2O[C@](C)(C(=O)N3)C(=O)[C@H](C)C1
> 30 µM: all assays above

C/C1=C\[C@@H](C)[C@H](O[C@@H]2CC[C@@H](O)[C@@H](C)O2)c2cc(O)cc3c2O[C@](C)(C(=O)N3)C(=O)[C@@H](C)C1
> 30 µM: all assays above

C/C1=C\[C@@H](C)[C@H](O)C2=CC(=O)C(N)=C(NC(=O)C(C)C(=O)[C@@H](C)C1)C2=O (stereo not given in full)
> 30 µM: all assays above

C/C1=C\C(C)C(O)c2cc(O)cc3c2OC(C)(C(=O)N3)C(=O)C(C)C1 (stereo not given)
> 30 µM: all assays above

C/C1=C\[C@@H](C)[C@H](O[C@@H]2CC[C@H](O)[C@@H](C)O2)c2cc(O)cc3c2O[C@](C)(C(=O)N3)C(=O)[C@@H](C)C1
> 30 µM: all assays above

C/C1=C\[C@@H](C)[C@H](O)c2cc(O)cc3c2O[C@](C)(C(=O)N3)C(=O)[C@@H](C)C1
> 30 µM: all assays above

C/C1=C\[C@@H](C)[C@H](O[C@@H]2CC[C@@H](O)[C@@H](C)O2)C2=CC(=O)C(N)=C(NC(=O)C(C)C(=O)[C@@H](C)C1)C2=O (stereo not given in full)
> 30 µM: all assays above

C/C1=C\C(C)C(O)c2cc(O)cc3c2OC(CO)(C(=O)N3)C(=O)C(C)C1 (stereo not given)
> 30 µM: all assays above

CCC(=O)[C@@H](C)C/C(C)=C/[C@@H](C)[C@H](O[C@@H]1CC[C@@H](O)[C@@H](C)O1)C1=CC(=O)C=C(N)C1=O
> 30 µM: all assays above
